Where two headings read alike, the source gives them in different places.
Columns and labels:
[1] = biological target: Y641 mutant PRC2 enzyme (EZH2 Y641) (Homo sapiens, UniProt Q15910, Y641F); experiment: PRC2 enzyme assay on peptide substrate, Y641 mutant EZH2
Source text: (§1) S-adenosylmethionine (SAM), S-adenosylhomocyteine (SAH), bicine, KCl, Tween20, dimethylsulfoxide (DMSO) and bovine skin gelatin (BSG) can be purchased from Sigma-Aldrich at the highest level of purity possible. Dithiothreitol (DTT) was purchased from EMD. ^3H-SAM can be purchased from American Radiolabeled Chemicals with a specific activity of 80 C1/mmol. 384-well streptavidin Flashplates can be purchased from PerkinElmer.
(§2) Recombinant PRC2 Enzymes. Human PRC2 enzymes are purified as 4-component enzyme complexes co-expressed in Spodoptera frugiperda (sf9) cells using a baculovirus expression system. […] The EED subunit contains an N-terminal FLAG tag that is used to purify the entire 4-component complex from sf9 cell lysates. The purity of the complexes meets or exceeds 95% as determined by SDS-PAGE and Agilent Bioanalyzer analysis.
(§3) General Procedure for PRC2 Enzyme Assays on Peptide Substrates. The assays are all performed in a buffer consisting of 20 mM bicine (pH=7.6), 0.5 mM DTT, 0.005% BSG and 0.002% Tween20, prepared on the day of use. […] DMSO (1 μL) is added to columns 11, 12, 23, 24, rows A-H for the maximum signal control, and SAH, a known product and inhibitor of PRC2 (1 μL) is added to columns 11, 12, 23, 24, rows I-P for the minimum signal control. A cocktail (40 μL) containing the wild-type PRC2 enzyme and H3K27me0 peptide or any of the Y641 mutant enzymes and H3K27me2 peptide is added by Multidrop Combi (Thermo). The compounds are allowed to incubate with PRC2 for 30 min at 25° C., then a cocktail (10 μL) containing a mixture of non-radioactive and ^3H-SAM is added to initiate the reaction (final volume=51 μL). […] The assays are stopped by the addition of non-radioactive SAM (10 μL) to a final concentration of 600 μM, which dilutes the ^3H-SAM to a level where its incorporation into the peptide substrate is no longer detectable. 50 μL of the reaction in the 384-well polypropylene plate is then transferred to a 384-well Flashplate and the biotinylated peptides are allowed to bind to the streptavidin surface for at least 1h before being washed three times with 0.1% Tween20 in a Biotek ELx405 plate washer. The plates are then read in a PerkinElmer TopCount platereader to measure the quantity of ^3H-labeled peptide bound to the Flashplate surface, measured as disintegrations per minute (dpm) or alternatively, referred to as counts per minute (cpm).
(§4) Where dpm=disintegrations per minute, cmpd=signal in assay well, and min and max are the respective minimum and maximum signal controls.
(§5) Where top and bottom are the normally allowed to float, but may be fixed at 100 or 0 respectively in a 3-parameter fit. The Hill Coefficient normally allowed to float but may also be fixed at 1 in a 3-parameter fit. Y is the % inhibition and X is the compound concentration.

[2] = biological target: wild-type PRC2 enzyme (EZH2 WT) (Homo sapiens, UniProt Q15910); experiment: PRC2 enzyme assay on peptide substrate, wild-type EZH2
Source text: as §1, §2, §3, §4, §5

[3] = EZH2 Y641 IC50 (μM), Y641 mutant EZH2 such as Y641F, H3K27me2 peptide substrate
[4] = EZH2 WT IC50 (μM), wild-type PRC2 enzyme, H3K27me0 peptide substrate

wild-type PRC2 enzyme (EZH2 WT), sequence (Q15910 whole entry): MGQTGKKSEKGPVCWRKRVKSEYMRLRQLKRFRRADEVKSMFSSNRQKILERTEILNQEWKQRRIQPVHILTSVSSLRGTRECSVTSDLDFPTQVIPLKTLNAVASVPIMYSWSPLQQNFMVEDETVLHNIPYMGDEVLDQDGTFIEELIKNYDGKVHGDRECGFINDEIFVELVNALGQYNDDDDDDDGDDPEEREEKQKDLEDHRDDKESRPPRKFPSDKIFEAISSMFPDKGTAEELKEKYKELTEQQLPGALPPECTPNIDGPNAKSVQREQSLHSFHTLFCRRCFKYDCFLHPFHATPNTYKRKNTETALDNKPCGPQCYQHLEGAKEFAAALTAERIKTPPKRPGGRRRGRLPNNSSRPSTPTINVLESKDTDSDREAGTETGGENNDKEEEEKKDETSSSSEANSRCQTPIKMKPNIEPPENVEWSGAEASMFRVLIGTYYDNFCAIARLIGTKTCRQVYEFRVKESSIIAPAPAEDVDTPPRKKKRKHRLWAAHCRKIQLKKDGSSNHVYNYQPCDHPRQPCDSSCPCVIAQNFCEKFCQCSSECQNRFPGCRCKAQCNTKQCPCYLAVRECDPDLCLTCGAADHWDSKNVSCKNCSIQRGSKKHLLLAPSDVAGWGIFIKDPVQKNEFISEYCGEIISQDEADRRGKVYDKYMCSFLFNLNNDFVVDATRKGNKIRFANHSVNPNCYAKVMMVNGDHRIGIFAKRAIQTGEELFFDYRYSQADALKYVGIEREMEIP
wild-type PRC2 enzyme (EZH2 WT), sequence (O75530 whole entry partner): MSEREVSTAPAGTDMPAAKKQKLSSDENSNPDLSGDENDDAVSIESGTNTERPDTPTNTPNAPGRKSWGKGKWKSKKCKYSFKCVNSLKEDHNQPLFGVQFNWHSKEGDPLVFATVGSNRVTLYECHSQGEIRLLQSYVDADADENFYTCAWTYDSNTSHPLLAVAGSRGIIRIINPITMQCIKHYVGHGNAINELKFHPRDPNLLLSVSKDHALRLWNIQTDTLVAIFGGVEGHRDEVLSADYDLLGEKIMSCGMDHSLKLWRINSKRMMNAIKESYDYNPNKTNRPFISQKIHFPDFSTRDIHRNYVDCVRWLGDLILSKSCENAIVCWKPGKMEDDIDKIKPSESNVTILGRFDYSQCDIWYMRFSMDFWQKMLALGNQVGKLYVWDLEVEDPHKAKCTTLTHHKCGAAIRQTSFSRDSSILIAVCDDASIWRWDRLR
wild-type PRC2 enzyme (EZH2 WT), sequence (Q15022 whole entry partner): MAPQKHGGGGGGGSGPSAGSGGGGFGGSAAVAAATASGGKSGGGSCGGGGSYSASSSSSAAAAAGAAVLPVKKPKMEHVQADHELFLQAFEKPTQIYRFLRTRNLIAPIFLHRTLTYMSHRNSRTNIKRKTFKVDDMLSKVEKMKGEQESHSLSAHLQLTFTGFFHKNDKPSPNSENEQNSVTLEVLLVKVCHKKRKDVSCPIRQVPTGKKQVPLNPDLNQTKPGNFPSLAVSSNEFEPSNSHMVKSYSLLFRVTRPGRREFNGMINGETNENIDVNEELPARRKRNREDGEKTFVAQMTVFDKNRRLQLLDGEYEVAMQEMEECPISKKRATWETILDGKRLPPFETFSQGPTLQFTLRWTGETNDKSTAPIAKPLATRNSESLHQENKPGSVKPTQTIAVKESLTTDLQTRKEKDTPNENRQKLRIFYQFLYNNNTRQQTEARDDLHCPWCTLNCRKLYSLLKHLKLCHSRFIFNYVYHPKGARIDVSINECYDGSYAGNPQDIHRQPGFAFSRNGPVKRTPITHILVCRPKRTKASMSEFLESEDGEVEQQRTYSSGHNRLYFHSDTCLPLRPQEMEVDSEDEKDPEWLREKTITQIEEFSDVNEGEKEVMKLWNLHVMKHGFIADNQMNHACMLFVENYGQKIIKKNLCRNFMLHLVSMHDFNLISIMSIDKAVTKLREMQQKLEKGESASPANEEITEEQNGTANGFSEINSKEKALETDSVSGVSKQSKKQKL
wild-type PRC2 enzyme (EZH2 WT), sequence (Q09028 whole entry partner): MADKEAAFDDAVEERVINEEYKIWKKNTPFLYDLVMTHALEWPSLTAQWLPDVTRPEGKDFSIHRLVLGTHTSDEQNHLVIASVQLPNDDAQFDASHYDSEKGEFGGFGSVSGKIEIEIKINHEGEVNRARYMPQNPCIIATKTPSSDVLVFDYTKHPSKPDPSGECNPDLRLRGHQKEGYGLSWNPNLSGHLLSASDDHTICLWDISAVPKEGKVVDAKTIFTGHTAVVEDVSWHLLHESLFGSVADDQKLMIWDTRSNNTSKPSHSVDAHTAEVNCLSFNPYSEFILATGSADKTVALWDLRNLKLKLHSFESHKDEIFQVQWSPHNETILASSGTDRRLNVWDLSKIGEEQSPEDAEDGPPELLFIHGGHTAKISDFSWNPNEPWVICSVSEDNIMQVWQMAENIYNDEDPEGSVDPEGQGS
Y641 mutant PRC2 enzyme (EZH2 Y641), sequence (Q15910 whole entry Y641F): as the sequence (Q15910 whole entry) above, with Y641F counted along it
Y641 mutant PRC2 enzyme (EZH2 Y641), sequence (O75530 whole entry partner): as the sequence (O75530 whole entry partner) above
Y641 mutant PRC2 enzyme (EZH2 Y641), sequence (Q15022 whole entry partner): as the sequence (Q15022 whole entry partner) above
Y641 mutant PRC2 enzyme (EZH2 Y641), sequence (Q09028 whole entry partner): as the sequence (Q09028 whole entry partner) above

Molecule COc1c(CNC(=O)c2ccc(C(C)Oc3ccccc3)c(Cl)c2)c(C)nn1C (stereo not drawn) [compound 2, 3-chloro-N-((5-methoxy-1,3-dimethyl-1H-pyrazol-4-yl)methyl)-4-(1-phenoxyethyl)benzamide] has an IC50 [1] greater than 50 µM and an IC50 [2] greater than 50 µM.
Cc1[nH]n(C)c(=O)c1CNC(=O)c1ccc(C(C)Oc2ccccc2)c(Cl)c1 (stereo not drawn) [compound 3, 3-chloro-N-((2,5-dimethyl-3-oxo-2,3-dihydro-1H-pyrazol-4-yl)methyl)-4-(1-phenoxyethyl)benzamide] was tested, and the IC50 [1] was greater than 50 µM and the IC50 [2] was greater than 50 µM.
For Cc1c(CNC(=O)c2ccc(C(C)Oc3ccccc3)c(Cl)c2)c(=O)[nH]n1C (stereo not drawn) [compound 4, 3-chloro-N-((1,5-dimethyl-3-oxo-2,3-dihydro-1H-pyrazol-4-yl)methyl)-4-(1-phenoxyethyl)benzamide], the IC50 [1] was greater than 50 µM and the IC50 [2] was greater than 50 µM.
COc1c(CNC(=O)c2ccc(C(C)Oc3ccccc3)cc2C)c(C)nn1C (stereo not drawn) [compound 7, N-((5-methoxy-1,3-dimethyl-1H-pyrazol-4-yl)methyl)-2-methyl-4-(1-phenoxyethyl)benzamide] gave an IC50 [1] greater than 50 µM and an IC50 [2] greater than 50 µM.
Cc1cc(C(C)Oc2ccccc2)ccc1C(=O)NCc1c(C)n(C)[nH]c1=O (stereo not drawn) [compound 8, N-((1,5-dimethyl-3-oxo-2,3-dihydro-1H-pyrazol-4-yl)methyl)-2-methyl-4-(1-phenoxyethyl)benzamide] gave an IC50 [1] greater than 50 µM and an IC50 [2] greater than 50 µM.
In the case of COc1nn(C)c(C)c1CNC(=O)c1cc(Cl)c(C(C)Oc2ccccc2)cc1C (stereo not drawn) [compound 9, 5-chloro-N-((3-methoxy-1,5-dimethyl-1H-pyrazol-4-yl)methyl)-2-methyl-4-(1-phenoxyethyl)benzamide], the IC50 [1] is reported as greater than 50 µM and the IC50 [2] is reported as greater than 50 µM.
Cc1cc(C(C)Oc2ccccc2)c(Cl)cc1C(=O)NCc1c(C)n(C)[nH]c1=O (stereo not drawn) [compound 10, 5-chloro-N-((1,5-dimethyl-3-oxo-2,3-dihydro-1H-pyrazol-4-yl)methyl)-2-methyl-4-(1-phenoxyethyl)benzamide] gave an IC50 [1] of 10 to 50 µM and an IC50 [2] of 10 to 50 µM.
Cc1cc(=O)c(CNC(=O)c2cc(Cl)c(C(C)Oc3ccccc3)cc2C)c(C)[nH]1 (stereo not drawn) [compound 11, 5-chloro-N-((2,6-dimethyl-4-oxo-1,4-dihydropyridin-3-yl)methyl)-2-methyl-4-(1-phenoxyethyl)benzamide] showed an IC50 [1] of 1 to 10 µM and an IC50 [2] of 10 to 50 µM.
For Cc1cc(=O)c(CNC(=O)c2ccc(Oc3cccc(-c4ccnnc4)c3C#N)c(Cl)c2)c(C)[nH]1 [compound 13, 3-chloro-4-(2-cyano-3-(pyridazin-4-yl)phenoxy)-N-((2,6-dimethyl-4-oxo-1,4-dihydropyridin-3-yl)methyl)benzamide], the IC50 [1] was 1 to 10 µM and the IC50 [2] was 10 to 50 µM.
With COc1nn(C)c(C)c1CNC(=O)c1ccc(Oc2cccc(-c3ccnnc3)c2C#N)c(Cl)c1 [compound 14, 3-chloro-4-(2-cyano-3-(pyridazin-4-yl)phenoxy)-N-((3-methoxy-1,5-dimethyl-1H-pyrazol-4-yl)methyl)benzamide] the IC50 [1] was greater than 50 µM and the IC50 [2] was greater than 50 µM.
With Cc1c(CNC(=O)c2ccc(Oc3cccc(-c4ccnnc4)c3C#N)c(Cl)c2)c(=O)[nH]n1C [compound 15, 3-chloro-4-(2-cyano-3-(pyridazin-4-yl)phenoxy)-N-((1,5-dimethyl-3-oxo-2,3-dihydro-1H-pyrazol-4-yl)methyl)benzamide] the IC50 [1] was 10 to 50 µM and the IC50 [2] was 10 to 50 µM.
Work on COc1nn(C)c(C)c1CNC(=O)c1cc(Cl)c(Oc2cccc(-c3ccnnc3)c2C#N)cc1C [compound 17, 5-chloro-4-(2-cyano-3-(pyridazin-4-yl)phenoxy)-N-((3-methoxy-1,5-dimethyl-1H-pyrazol-4-yl)methyl)-2-methylbenzamide] yielded an IC50 [1] greater than 50 µM and an IC50 [2] greater than 50 µM.
For Cc1cc(Oc2cccc(-c3ccnnc3)c2C#N)c(Cl)cc1C(=O)NCc1c(C)n(C)[nH]c1=O [compound 18, 5-chloro-4-(2-cyano-3-(pyridazin-4-yl)phenoxy)-N-((1,5-dimethyl-3-oxo-2,3-dihydro-1H-pyrazol-4-yl)methyl)-2-methylbenzamide], the IC50 [1] was 1 to 10 µM and the IC50 [2] was 1 to 10 µM.
For COc1nn(C)c(C)c1CNC(=O)c1c(C)n(C(C)C2CCOCC2)c2ccccc12 (stereo not drawn) [compound 22, N-((3-methoxy-1,5-dimethyl-1H-pyrazol-4-yl)methyl)-2-methyl-1-(1-(tetrahydro-2H-pyran-4-yl)ethyl)-1H-indole-3-carboxamide], the IC50 [1, 3] was greater than 50 µM and the IC50 [2, 4] was greater than 50 µM.
Work on Cc1c(CNC(=O)c2c(C)n(C(C)C3CCOCC3)c3ccccc23)c(=O)[nH]n1C (stereo not drawn) [compound 23, N-((1,5-dimethyl-3-oxo-2,3-dihydro-1H-pyrazol-4-yl)methyl)-2-methyl-1-(1-(tetrahydro-2H-pyran-4-yl)ethyl)-1H-indole-3-carboxamide] yielded an IC50 [1, 3] of 10 to 50 µM and an IC50 [2, 4] greater than 50 µM.
In the case of CCC(C)n1cc(C)c2c(C(=O)NCc3c(OC)nn(C)c3C)cc(-c3ccc(N4CCNCC4)nc3)cc21 (stereo not drawn) [compound 27, 1-(sec-butyl)-N-((3-methoxy-1,5-dimethyl-1H-pyrazol-4-yl)methyl)-3-methyl-6-(6-(piperazin-1-yl)pyridin-3-yl)-1H-indole-4-carboxamide], the IC50 [1] is reported as 0.1 to 1 µM and the IC50 [2] is reported as 1 to 10 µM.
In the case of CCC(C)n1cc(C)c2c(C(=O)NCc3c(C)n(C)[nH]c3=O)cc(-c3ccc(N4CCNCC4)nc3)cc21 (stereo not drawn) [compound 28, 1-(sec-butyl)-N-((1,5-dimethyl-3-oxo-2,3-dihydro-1H-pyrazol-4-yl)methyl)-3-methyl-6-(6-(piperazin-1-yl)pyridin-3-yl)-1H-indole-4-carboxamide], the IC50 [1] is reported as 1 to 10 µM and the IC50 [2] is reported as 10 to 50 µM.
Molecule CCC(C)n1cc(C)c2c(C(=O)NCc3c(OC)nn(CC)c3C)cc(-c3ccc(N4CCNCC4)nc3)cc21 (stereo not drawn) [compound 29, 1-(sec-butyl)-N-((1-ethyl-3-methoxy-5-methyl-1H-pyrazol-4-yl)methyl)-3-methyl-6-(6-(piperazin-1-yl)pyridin-3-yl)-1H-indole-4-carboxamide] has an IC50 [1] of 1 to 10 µM and an IC50 [2] of 1 to 10 µM.
CCN(c1cc(Cl)cc(C(=O)NC2CC(C)(C)NC(C)(C)C2)c1C)[C@H]1CC[C@H](N(C)C)CC1 [compound 31, 5-chloro-3-(((trans)-4-(dimethylamino)cyclohexyl)(ethyl)amino)-2-methyl-N-(2,2,6,6-tetramethylpiperidin-4-yl)benzamide] was tested, and the IC50 [1] was greater than 50 µM and the IC50 [2] was greater than 50 µM.
With CCN(c1cc(Cl)cc(C(=O)NC2CC(C)(C)NC(C)(C)C2)c1C)[C@H]1CC[C@H](N(C)CCOC)CC1 [compound 32, 5-chloro-3-(ethyl((trans)-4-((2-methoxyethyl)-(methyl)-amino)-cyclohexyl)amino)-2-methyl-N-(2,2,6,6-tetramethylpiperidin-4-yl)benzamide] the IC50 [1] was greater than 50 µM and the IC50 [2] was greater than 50 µM.
With CCN(c1cc(-c2ccc(OCCOC)cc2)cc(C(=O)NC2CC(C)(C)NC(C)(C)C2)c1C)C1CCOCC1 [compound 34, 5-(ethyl(tetrahydro-2H-pyran-4-yl)amino)-4′-(2-methoxyethoxy)-4-methyl-N-(2,2,6,6-tetramethylpiperidin-4-yl)-[1,1′-biphenyl]-3-carboxamide] the IC50 [1] was greater than 50 µM and the IC50 [2] was greater than 50 µM.

Source: patent publication US20200361914A1, “SUBSTITUTED BENZENE AND 6,5-FUSED BICYCLIC HETEROARYL COMPOUNDS” (Epizyme, Inc., priority 2014, published 2020)
